{
  "source": "ChEMBL document CHEMBL5113500",
  "about": "“New brefeldin A-cinnamic acid ester derivatives as potential antitumor agents: Design, synthesis and biological evaluation” (Eur J Med Chem, 2022)",
  "key": {"HepG2 [1]": {"tested_on": "HepG2", "assay": "Antiproliferative activity against human HepG2 cells assessed as cell growth inhibition at 1 uM measured after 72 hrs by MTT assay relative to control", "format": "functional", "settings": "read-out: GI"}, "Bel-7402": {"tested_on": "Bel-7402", "assay": "Antiproliferative activity against human Bel-7402 cells measured after 72 hrs by MTT assay", "format": "functional, cell-based", "settings": "Bel-7402, 72 h"}, "HepG2 [2]": {"tested_on": "HepG2", "assay": "Antiproliferative activity against human HepG2 cells measured after 72 hrs by MTT assay", "format": "functional, cell-based", "settings": "HepG2, 72 h"}, "PANC-1": {"tested_on": "PANC-1", "assay": "Antiproliferative activity against human PANC-1 cells measured after 72 hrs by MTT assay", "format": "functional, cell-based", "settings": "PANC-1, 72 h"}, "ECa-109 cell line": {"tested_on": "ECa-109 cell line", "assay": "Antiproliferative activity against human Eca-109 cells measured after 72 hrs by MTT assay", "format": "functional, cell-based", "settings": "ECa-109, 72 h"}, "HeLa": {"tested_on": "HeLa", "assay": "Antiproliferative activity against human HeLa cells measured after 72 hrs by MTT assay", "format": "functional, cell-based"}},
  "data": [
    {"smiles": "C[C@H]1CCC/C=C/[C@@H]2C[C@H](OC(=O)/C=C/c3ccccc3Br)C[C@H]2[C@H](OC(=O)/C=C/c2ccccc2Br)/C=C/C(=O)O1", "values": [
      {"measurement": "inhibition of growth at 1 µM", "setting": "HepG2 [1]", "value": 3.1, "unit": "%"}
    ]},
    {"smiles": "Cc1cccc(/C=C/C(=O)O[C@@H]2/C=C/C(=O)O[C@@H](C)CCC/C=C/[C@@H]3C[C@H](O)C[C@H]32)c1", "values": [
      {"measurement": "IC50", "setting": "Bel-7402", "value": 750, "unit": "nM"},
      {"measurement": "IC50", "setting": "HepG2 [2]", "value": 560, "unit": "nM"},
      {"measurement": "IC50", "setting": "PANC-1", "value": 370, "unit": "nM"},
      {"measurement": "IC50", "setting": "ECa-109 cell line", "value": 1090, "unit": "nM"},
      {"measurement": "IC50", "setting": "HeLa", "value": 870, "unit": "nM"},
      {"measurement": "inhibition of growth at 1 µM", "setting": "HepG2 [1]", "value": 77.8, "unit": "%"}
    ]},
    {"smiles": "C[C@H]1CCC/C=C/[C@@H]2C[C@H](OC(=O)/C=C/c3ccc(F)cc3)C[C@H]2[C@H](O)/C=C/C(=O)O1", "values": [
      {"measurement": "IC50", "setting": "Bel-7402", "value": 1040, "unit": "nM"},
      {"measurement": "IC50", "setting": "HepG2 [2]", "value": 980, "unit": "nM"},
      {"measurement": "IC50", "setting": "PANC-1", "value": 670, "unit": "nM"},
      {"measurement": "IC50", "setting": "ECa-109 cell line", "value": 2860, "unit": "nM"},
      {"measurement": "IC50", "setting": "HeLa", "value": 3960, "unit": "nM"},
      {"measurement": "inhibition of growth at 1 µM", "setting": "HepG2 [1]", "value": 69.7, "unit": "%"}
    ]},
    {"smiles": "C[C@H]1CCC/C=C/[C@@H]2C[C@H](OC(=O)/C=C/c3ccccc3)C[C@H]2[C@H](OC(=O)/C=C/c2ccccc2)/C=C/C(=O)O1", "values": [
      {"measurement": "inhibition of growth at 1 µM", "setting": "HepG2 [1]", "value": 20.4, "unit": "%"}
    ]},
    {"smiles": "C[C@H]1CCC/C=C/[C@@H]2C[C@H](O)C[C@H]2[C@H](OC(=O)/C=C/c2ccccc2)/C=C/C(=O)O1", "values": [
      {"measurement": "IC50", "setting": "Bel-7402", "value": 970, "unit": "nM"},
      {"measurement": "IC50", "setting": "HepG2 [2]", "value": 570, "unit": "nM"},
      {"measurement": "IC50", "setting": "PANC-1", "value": 420, "unit": "nM"},
      {"measurement": "IC50", "setting": "ECa-109 cell line", "value": 1120, "unit": "nM"},
      {"measurement": "IC50", "setting": "HeLa", "value": 1170, "unit": "nM"},
      {"measurement": "inhibition of growth at 1 µM", "setting": "HepG2 [1]", "value": 64.7, "unit": "%"}
    ]},
    {"smiles": "C[C@H]1CCC/C=C/[C@@H]2C[C@H](OC(=O)/C=C/c3ccc4c(c3)OCO4)C[C@H]2[C@H](OC(=O)/C=C/c2ccc3c(c2)OCO3)/C=C/C(=O)O1", "values": [
      {"measurement": "inhibition of growth at 1 µM", "setting": "HepG2 [1]", "value": 4.3, "unit": "%"}
    ]},
    {"smiles": "Cc1ccc(/C=C/C(=O)O[C@@H]2C[C@H]3[C@H](O)/C=C/C(=O)O[C@@H](C)CCC/C=C/[C@@H]3C2)cc1", "values": [
      {"measurement": "IC50", "setting": "Bel-7402", "value": 2140, "unit": "nM"},
      {"measurement": "IC50", "setting": "HepG2 [2]", "value": 2870, "unit": "nM"},
      {"measurement": "IC50", "setting": "PANC-1", "value": 1350, "unit": "nM"},
      {"measurement": "IC50", "setting": "ECa-109 cell line", "value": 12500, "unit": "nM"},
      {"measurement": "IC50", "setting": "HeLa", "value": 1910, "unit": "nM"},
      {"measurement": "inhibition of growth at 1 µM", "setting": "HepG2 [1]", "value": 30.8, "unit": "%"}
    ]},
    {"smiles": "C[C@H]1CCC/C=C/[C@@H]2C[C@H](O)C[C@H]2[C@H](OC(=O)/C=C/c2cccc(F)c2)/C=C/C(=O)O1", "values": [
      {"measurement": "IC50", "setting": "Bel-7402", "value": 810, "unit": "nM"},
      {"measurement": "IC50", "setting": "HepG2 [2]", "value": 490, "unit": "nM"},
      {"measurement": "IC50", "setting": "PANC-1", "value": 360, "unit": "nM"},
      {"measurement": "IC50", "setting": "ECa-109 cell line", "value": 950, "unit": "nM"},
      {"measurement": "IC50", "setting": "HeLa", "value": 700, "unit": "nM"},
      {"measurement": "inhibition of growth at 1 µM", "setting": "HepG2 [1]", "value": 68.3, "unit": "%"}
    ]},
    {"smiles": "C[C@H]1CCC/C=C/[C@@H]2C[C@H](OC(=O)/C=C/c3cccc(F)c3)C[C@H]2[C@H](OC(=O)/C=C/c2cccc(F)c2)/C=C/C(=O)O1", "values": [
      {"measurement": "inhibition of growth at 1 µM", "setting": "HepG2 [1]", "value": 6.3, "unit": "%"}
    ]},
    {"smiles": "C[C@H]1CCC/C=C/[C@@H]2C[C@H](OC(=O)/C=C/c3ccc(C(F)(F)F)cc3)C[C@H]2[C@H](O)/C=C/C(=O)O1", "values": [
      {"measurement": "IC50", "setting": "Bel-7402", "value": 450, "unit": "nM"},
      {"measurement": "IC50", "setting": "HepG2 [2]", "value": 420, "unit": "nM"},
      {"measurement": "IC50", "setting": "PANC-1", "value": 460, "unit": "nM"},
      {"measurement": "IC50", "setting": "ECa-109 cell line", "value": 550, "unit": "nM"},
      {"measurement": "IC50", "setting": "HeLa", "value": 460, "unit": "nM"},
      {"measurement": "inhibition of growth at 1 µM", "setting": "HepG2 [1]", "value": 86.7, "unit": "%"}
    ]},
    {"smiles": "C[C@H]1CCC/C=C/[C@@H]2C[C@H](OC(=O)/C=C/c3ccc(F)cc3)C[C@H]2[C@H](OC(=O)/C=C/c2ccc(F)cc2)/C=C/C(=O)O1", "values": [
      {"measurement": "inhibition of growth at 1 µM", "setting": "HepG2 [1]", "value": 8.1, "unit": "%"}
    ]},
    {"smiles": "C[C@H]1CCC/C=C/[C@@H]2C[C@H](OC(=O)/C=C/c3ccccc3)C[C@H]2[C@H](O)/C=C/C(=O)O1", "values": [
      {"measurement": "IC50", "setting": "Bel-7402", "value": 1110, "unit": "nM"},
      {"measurement": "IC50", "setting": "HepG2 [2]", "value": 1250, "unit": "nM"},
      {"measurement": "IC50", "setting": "PANC-1", "value": 570, "unit": "nM"},
      {"measurement": "IC50", "setting": "ECa-109 cell line", "value": 1210, "unit": "nM"},
      {"measurement": "IC50", "setting": "HeLa", "value": 530, "unit": "nM"},
      {"measurement": "inhibition of growth at 1 µM", "setting": "HepG2 [1]", "value": 62.9, "unit": "%"}
    ]},
    {"smiles": "Cc1ccc(/C=C/C(=O)O[C@@H]2/C=C/C(=O)O[C@@H](C)CCC/C=C/[C@@H]3C[C@H](O)C[C@H]32)cc1", "values": [
      {"measurement": "IC50", "setting": "Bel-7402", "value": 970, "unit": "nM"},
      {"measurement": "IC50", "setting": "HepG2 [2]", "value": 1500, "unit": "nM"},
      {"measurement": "IC50", "setting": "PANC-1", "value": 350, "unit": "nM"},
      {"measurement": "IC50", "setting": "ECa-109 cell line", "value": 3590, "unit": "nM"},
      {"measurement": "IC50", "setting": "HeLa", "value": 1310, "unit": "nM"},
      {"measurement": "inhibition of growth at 1 µM", "setting": "HepG2 [1]", "value": 64, "unit": "%"}
    ]},
    {"smiles": "C[C@H]1CCC/C=C/[C@@H]2C[C@H](OC(=O)/C=C/c3ccccc3F)C[C@H]2[C@H](OC(=O)/C=C/c2ccccc2F)/C=C/C(=O)O1", "values": [
      {"measurement": "inhibition of growth at 1 µM", "setting": "HepG2 [1]", "value": 8.4, "unit": "%"}
    ]},
    {"smiles": "C[C@H]1CCC/C=C/[C@@H]2C[C@H](O)C[C@H]2[C@H](OC(=O)/C=C/c2ccccc2Br)/C=C/C(=O)O1", "values": [
      {"measurement": "IC50", "setting": "Bel-7402", "value": 640, "unit": "nM"},
      {"measurement": "IC50", "setting": "HepG2 [2]", "value": 520, "unit": "nM"},
      {"measurement": "IC50", "setting": "PANC-1", "value": 510, "unit": "nM"},
      {"measurement": "IC50", "setting": "ECa-109 cell line", "value": 1140, "unit": "nM"},
      {"measurement": "IC50", "setting": "HeLa", "value": 740, "unit": "nM"},
      {"measurement": "inhibition of growth at 1 µM", "setting": "HepG2 [1]", "value": 72.5, "unit": "%"}
    ]},
    {"smiles": "Cc1ccc(/C=C/C(=O)O[C@@H]2C[C@@H]3[C@H](/C=C/CCC[C@H](C)OC(=O)/C=C/[C@H]3OC(=O)/C=C/c3ccc(C)cc3)C2)cc1", "values": [
      {"measurement": "inhibition of growth at 1 µM", "setting": "HepG2 [1]", "value": 5.2, "unit": "%"}
    ]},
    {"smiles": "C[C@H]1CCC/C=C/[C@@H]2C[C@H](OC(=O)/C=C/c3ccc4c(c3)OCO4)C[C@H]2[C@H](O)/C=C/C(=O)O1", "values": [
      {"measurement": "inhibition of growth at 1 µM", "setting": "HepG2 [1]", "value": 3.7, "unit": "%"}
    ]},
    {"smiles": "C[C@H]1CCC/C=C/[C@@H]2C[C@H](O)C[C@H]2[C@H](OC(=O)/C=C/c2ccc3c(c2)OCO3)/C=C/C(=O)O1", "values": [
      {"measurement": "IC50", "setting": "Bel-7402", "value": 1070, "unit": "nM"},
      {"measurement": "IC50", "setting": "HepG2 [2]", "value": 1350, "unit": "nM"},
      {"measurement": "IC50", "setting": "PANC-1", "value": 870, "unit": "nM"},
      {"measurement": "IC50", "setting": "ECa-109 cell line", "value": 2200, "unit": "nM"},
      {"measurement": "IC50", "setting": "HeLa", "value": 1650, "unit": "nM"},
      {"measurement": "inhibition of growth at 1 µM", "setting": "HepG2 [1]", "value": 54.5, "unit": "%"}
    ]},
    {"smiles": "COc1cc(/C=C/C(=O)O[C@@H]2C[C@@H]3[C@H](/C=C/CCC[C@H](C)OC(=O)/C=C/[C@H]3OC(=O)/C=C/c3ccc(OCc4ccccc4)c(OC)c3)C2)ccc1OCc1ccccc1", "values": [
      {"measurement": "inhibition of growth at 1 µM", "setting": "HepG2 [1]", "value": 2.7, "unit": "%"}
    ]}
  ]
}
